Test results reported in ChEMBL document CHEMBL1158267, “Lycaconitine revisited: partial synthesis and neuronal nicotinic acetylcholine receptor affinities” (J Nat Prod, 1996).

Assays:
[1] = target: Neuronal acetylcholine receptor subunit alpha-7 (Rattus norvegicus, UniProt Q05941); assay: Displacement of [125I]alpha-bungarotoxin from alpha7 nAChR in rat brain membrane; type: cell membranes
[2] = Toxicity in iv dosed mouse; type: organism-based; details: in vivo
[3] = target: Neuronal acetylcholine receptor; alpha4/beta2 (Rattus norvegicus, UniProt P09483+P12390); assay: Displacement of [3H]cytisine from alpha4beta2 nAChR in rat brain membrane; type: cell membranes
Chain of Neuronal acetylcholine receptor; alpha4/beta2 (P09483 whole entry): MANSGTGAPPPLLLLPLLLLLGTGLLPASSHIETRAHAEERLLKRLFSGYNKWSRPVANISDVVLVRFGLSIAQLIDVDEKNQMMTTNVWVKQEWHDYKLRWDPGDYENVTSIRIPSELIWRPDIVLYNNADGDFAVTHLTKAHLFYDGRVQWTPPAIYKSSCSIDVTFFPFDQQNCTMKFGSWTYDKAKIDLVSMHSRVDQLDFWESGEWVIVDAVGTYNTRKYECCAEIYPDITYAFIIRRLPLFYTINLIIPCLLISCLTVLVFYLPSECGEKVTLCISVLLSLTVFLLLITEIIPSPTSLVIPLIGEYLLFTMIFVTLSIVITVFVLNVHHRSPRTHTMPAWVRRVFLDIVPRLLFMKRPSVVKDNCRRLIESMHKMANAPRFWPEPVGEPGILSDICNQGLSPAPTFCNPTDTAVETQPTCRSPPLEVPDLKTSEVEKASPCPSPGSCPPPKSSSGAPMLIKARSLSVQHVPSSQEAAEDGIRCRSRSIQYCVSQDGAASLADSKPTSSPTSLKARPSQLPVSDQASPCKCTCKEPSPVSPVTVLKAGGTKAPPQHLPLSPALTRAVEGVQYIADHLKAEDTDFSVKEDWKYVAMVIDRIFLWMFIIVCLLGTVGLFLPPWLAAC
Chain of Neuronal acetylcholine receptor; alpha4/beta2 (P12390 whole entry): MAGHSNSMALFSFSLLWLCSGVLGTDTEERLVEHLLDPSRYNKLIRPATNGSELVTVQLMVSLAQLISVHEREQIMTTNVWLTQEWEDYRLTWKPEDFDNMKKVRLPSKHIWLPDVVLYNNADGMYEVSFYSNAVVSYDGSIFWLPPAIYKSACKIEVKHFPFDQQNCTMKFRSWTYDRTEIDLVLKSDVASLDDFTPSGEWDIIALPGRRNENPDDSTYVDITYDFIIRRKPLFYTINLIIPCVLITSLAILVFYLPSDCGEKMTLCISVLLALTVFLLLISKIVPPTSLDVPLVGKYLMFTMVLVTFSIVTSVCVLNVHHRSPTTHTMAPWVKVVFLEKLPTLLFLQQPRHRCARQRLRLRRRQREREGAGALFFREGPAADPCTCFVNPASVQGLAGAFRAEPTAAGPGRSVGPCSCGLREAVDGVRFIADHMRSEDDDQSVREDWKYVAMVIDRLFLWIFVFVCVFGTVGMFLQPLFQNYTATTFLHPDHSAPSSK

Chain of Neuronal acetylcholine receptor subunit alpha-7 (Q05941 whole entry): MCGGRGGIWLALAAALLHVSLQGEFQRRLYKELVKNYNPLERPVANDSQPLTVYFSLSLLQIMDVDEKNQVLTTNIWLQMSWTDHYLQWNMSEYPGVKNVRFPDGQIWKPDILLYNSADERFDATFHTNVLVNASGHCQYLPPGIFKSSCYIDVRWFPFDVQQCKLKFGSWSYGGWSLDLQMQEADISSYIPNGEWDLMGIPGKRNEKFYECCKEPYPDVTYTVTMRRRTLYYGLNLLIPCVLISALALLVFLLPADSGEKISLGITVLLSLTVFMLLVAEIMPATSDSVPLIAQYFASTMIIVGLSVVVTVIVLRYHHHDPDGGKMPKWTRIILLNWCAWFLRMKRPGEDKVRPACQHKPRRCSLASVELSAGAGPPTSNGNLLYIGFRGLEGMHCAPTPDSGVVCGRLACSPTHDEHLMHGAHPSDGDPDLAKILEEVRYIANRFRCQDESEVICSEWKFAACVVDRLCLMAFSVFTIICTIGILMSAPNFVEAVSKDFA

| SMILES | Ki [1] [nM] | LD50 [2] [mg/kg] | Ki [3] [nM] |
| --- | --- | --- | --- |
| CCN1C[C@]2(COC(=O)c3ccccc3N3C(=O)CCC3=O)CC[C@H](OC)[C@]34C1[C@](O)([C@@H](OC)[C@H]23)[C@@]1(O)C[C@H](OC)[C@H]2C[C@@H]4[C@@H]1[C@H]2OC [LYCACONITINE] | 80 | 15 | 1000 |
| CCN1C[C@]2(COC(=O)c3ccccc3N3C(=O)C[C@H](C)C3=O)CC[C@H](OC)[C@@]34[C@@H]5C[C@H]6[C@H](OC)[C@@H]5[C@](O)(C[C@@H]6OC)[C@](O)([C@@H](OC)[C@H]23)[C@@H]14 [METHYLLYCACONITINE] |  | 3 |  |
